In PMC8234462, “Novel Cyclophilin Inhibitor Decreases Cell Proliferation and Tumor Growth in Models of Hepatocellular Carcinoma” (Cancers, 2021):
Read-outs that look alike come from different tables or passages of the source.

Assays:
[1] = test system: primary human hepatocytes; assay: Cell health parameters by fluorescent imaging (ArrayScan); format: cell-based; conditions: for AC50: Hepatocyte
Description: This experiment was performed in Cyprotex (Watertown, MA, USA). Cryopreserved Primary human hepatocytes plated on 384 black-well plate cells were dosed with NV651 at a range of concentrations (0.195, 0.391, 0.781, 1.56, 3.13, 6.25, 12.5, 25, 50 and 100 µM). At the end of the incubation period (24 or 48 h), several health parameters were analyzed to evaluate the potential cytotoxicity of NV651 in primary human hepatocytes, including the total cell count with Hoechst staining and PI subtraction (a nonpermeable dye to quantify dead cells), nuclear intensity, Glutathione content (GSH), mitochondrial membrane potential, reactive oxygen species (ROS), steatosis, nuclear size and DNA structure. Plates were then scanned using an automated fluorescent cellular imager, ArrayScan (Thermo Scientific Cellomics).

[2] = Stability of NV651 solution in 25% buffered HPbCD; format: physicochemical; conditions: stored at 4 °C
Description: Twenty-five percent buffered Hydroxy Propyl beta Cyclodextrin (HPbCD) was prepared from Hydroxy Propyl beta Cyclodextrin (Roquette, Lestrem, France), EDTA solution and phosphate buffer at a pH of 7.4, filtered with a […] (VWR, Cat# 28145-483, Radnor, PA, USA) and stored at 4 °C. NV651 was prepared at a concentration of 10 mg/kg with 25% buffered HPbCD (vehicle). NV651 solution was sonicated for 30 min in a water bath sonicator (Bioruptor, Diagenode, Denville, NJ, USA) and shaken for up to an hour, followed by a secondary sterilization with a 0.2-µm filter. NV651 solution was stored at 4 °C up to 2 weeks, with stability confirmed up to 3 weeks.

[3] = test system: human-derived normal cells; assay: Cytotoxicity panel of human-derived normal cells (overall); format: cell-based; conditions: overall statement
Description: The evaluation of the off-target effects of NV651 was performed by ImQuest BioSciences Inc. (Frederick, MD, USA) by analyzing the cytotoxicity in a panel of primary cells. NV651 was evaluated at a concentration of 30 µM and five serial half-logarithmic dilutions in triplicate. The positive control compounds for each cell type were purchased from Sigma-Aldrich (St. Louis, MO, USA) and were as follows: […]

CypD = CypD (Homo sapiens, UniProt P30405); assay: PPIase activity assay (chymotrypsin-coupled); format: biochemical; conditions: free-cell assay; Cyp equilibrated 1 h at 5 °C with inhibitor; read-out: absolute IC50, PPIase activity CypD
CypD, sequence (P30405 30-207): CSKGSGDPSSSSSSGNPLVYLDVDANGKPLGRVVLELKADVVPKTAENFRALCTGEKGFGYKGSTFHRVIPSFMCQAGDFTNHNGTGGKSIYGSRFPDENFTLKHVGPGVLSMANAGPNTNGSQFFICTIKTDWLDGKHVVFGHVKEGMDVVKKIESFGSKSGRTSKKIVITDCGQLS
Description: (§1) The PPIase activity of CypA, CypB, CypD and Cyp40 was determined by following the rate of hydrolysis of N-succinyl-Ala-Ala-Pro-Phe-p-nitroanilide by chymotrypsin, a digestive enzyme that only hydrolyzes the trans form of the peptide. Therefore, the hydrolysis of the cis form, the concentration of which is maximized by using a stock dissolved in trifluoroethanol containing 470-mM LiCl, is only possible with the isomerization from the cis to the trans form. […] The reaction was started with the peptide addition, and the change in absorbance was monitored spectrophotometrically at a 6-s interval for 6 min. The blank rates of hydrolysis (in the absence of Cyps) were subtracted from the rates in the presence of Cyps. The initial rates of the enzymatic reaction were analyzed by a first-order regression analysis of the time course of the change in absorbance.

CypB = CypB (Homo sapiens, UniProt P23284); assay: PPIase activity assay (chymotrypsin-coupled); format: biochemical; conditions: free-cell assay; Cyp equilibrated 1 h at 5 °C with inhibitor; read-out: absolute IC50, PPIase activity CypB
CypB, sequence (P23284 34-216): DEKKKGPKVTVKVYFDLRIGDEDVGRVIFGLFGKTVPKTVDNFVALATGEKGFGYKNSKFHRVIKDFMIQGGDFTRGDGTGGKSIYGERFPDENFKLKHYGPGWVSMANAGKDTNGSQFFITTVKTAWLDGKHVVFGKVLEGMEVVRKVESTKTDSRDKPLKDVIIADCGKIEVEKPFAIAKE
Description: as §1

Cyp40 = Cyp40 (Homo sapiens, UniProt Q08752); assay: PPIase activity assay (chymotrypsin-coupled); format: biochemical; conditions: free-cell assay; Cyp equilibrated 1 h at 5 °C with inhibitor; read-out: absolute IC50, PPIase activity Cyp40
Cyp40, sequence (Q08752 whole entry): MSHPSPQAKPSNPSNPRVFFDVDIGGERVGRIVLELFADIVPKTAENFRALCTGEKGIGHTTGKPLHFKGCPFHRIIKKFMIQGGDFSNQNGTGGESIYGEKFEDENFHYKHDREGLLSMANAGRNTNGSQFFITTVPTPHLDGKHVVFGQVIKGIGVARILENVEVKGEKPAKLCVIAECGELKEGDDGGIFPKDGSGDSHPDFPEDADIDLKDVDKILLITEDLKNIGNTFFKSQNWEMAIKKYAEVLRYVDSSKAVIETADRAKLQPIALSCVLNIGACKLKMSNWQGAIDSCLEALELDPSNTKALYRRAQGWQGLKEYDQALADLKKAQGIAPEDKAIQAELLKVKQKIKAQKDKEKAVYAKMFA
Description: as §1

CypA = CypA (Homo sapiens, UniProt P62937); assay: PPIase activity assay (chymotrypsin-coupled); format: biochemical; conditions: free-cell assay; Cyp equilibrated 1 h at 5 °C with inhibitor; read-out: absolute IC50, PPIase activity CypA
CypA, sequence (P62937 whole entry): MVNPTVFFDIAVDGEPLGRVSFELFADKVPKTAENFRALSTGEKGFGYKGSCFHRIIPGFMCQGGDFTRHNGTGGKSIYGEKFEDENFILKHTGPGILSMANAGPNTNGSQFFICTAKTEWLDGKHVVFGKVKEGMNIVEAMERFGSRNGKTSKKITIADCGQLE
Description: as §1

HUH7 = assay: Cell cycle analysis (PI DNA content); format: cell-based, human
Description: (§2) For the quantification of the DNA content, cells were treated with DMSO or 100 nM of NV651. Samples were collected at 24, 48, 72 and 96 h, followed by fixation with 70% (v/v) ethanol. DNA was stained with 50-µg/mL PI. Due to the capacity of PI to stain any type of nucleotide, RNase (100 µg/mL) (Sigma-Aldrich, Cat# R4875-100MG, St. Louis, MO, USA) was also added. To quantify the apoptotic cell fraction, we measured the subG1 fraction in the cell cycle.
(§3) Data was acquired with FACSverse Instrument and analyzed with FCS Express 6 Flow Research.

HEPG2 = assay: Cell cycle analysis (PI DNA content); format: cell-based, human
Description: as §2, §3

Unstimulated PBMCs = assay: Cytotoxicity, CellTiter Glo; format: cell-based; conditions: Homo sapiens, PBMC, 72 h, 3 days of treatment, read-out: IC50 (50% reduction in cell viability)
Description: (§4) The evaluation of the off-target effects of NV651 was performed by ImQuest BioSciences Inc. (Frederick, MD, USA) by analyzing the cytotoxicity in a panel of primary cells. NV651 was evaluated at a concentration of 30 µM and five serial half-logarithmic dilutions in triplicate. The positive control compounds for each cell type were purchased from Sigma-Aldrich (St. Louis, MO, USA) and were as follows:
(§5) Human unstimulated or PHA-P-stimulated PBMCs were isolated by Ficoll hypaque centrifugation from whole blood and resuspended in a fresh tissue culture medium containing IL-2. Cells were seeded at a concentration of 5 × 10^5 /mL in a 96-well plate followed by NV651 treatment in triplicate for 3 days. Cell viability was measured with CellTiter Glo (Promega, Madison, WI, USA).
(§6) CellTiter Glo was performed to evaluate cell viability. CellTiter Glo Luminescent Cell Viability Assay (Promega, Madison, WI, USA) was performed according to the manufacturer’s instructions.

PHA-stimulated PBMCs = assay: Cytotoxicity, CellTiter Glo; format: cell-based; conditions: Homo sapiens, PBMC, 72 h, 3 days of treatment, read-out: IC50 (50% reduction in cell viability)
Description: as §4, §5, §6

CC(=O)CCC1C(=O)NC(C(C)C)C(=O)NC(Cc2cc(O)cc(F)c2)C(=O)N2CCCC(N2)C(=O)OC(C(C)=CC=CC(=O)OC(C)(C)C)CC=CC=CC(O)C(C)C1O (stereo not drawn) [NV651]
MEC, Glutathione content ([1]; 24 h): 2.62 µM
MEC, Mitochondrial Membrane potential ([1]; 24 h): 12.40 µM
MEC, Nuclear intensity ([1]; 24 h): 8.90 µM
MEC, ROS ([1]; 24 h): 6.43 µM
MEC, Cell count (PI corrected) ([1]; 48 h): 6.14 µM
MEC, DNA structure ([1]; 48 h): 10.90 µM
MEC, Nuclear size ([1]; 48 h): 18.10 µM
MEC, Steatosis ([1]; 48 h): 6.81 µM
AC50 ([1]; 24 h, read-out: AC50, Glutathione content): 10.9 µM
AC50 ([1]; 24 h, read-out: AC50, Mitochondrial Membrane potential): 14.2 µM
AC50 ([1]; 24 h, read-out: AC50, Nuclear intensity): 8.94 µM
AC50 ([1]; 24 h, read-out: AC50, ROS): 8.17 µM
AC50 ([1]; 48 h, read-out: AC50, Cell count (PI corrected)): 13.9 µM
AC50 ([1]; 48 h, read-out: AC50, DNA structure): 34.4 µM
AC50 ([1]; 48 h, read-out: AC50, Nuclear size): 21.5 µM
AC50 ([1]; 48 h, read-out: AC50, Steatosis): 39 µM
stability of NV651 solution [2]: up to 3 weeks
IC50 [3]: > 20 µM
IC50 (CypD): 0.000842 µM
IC50 (CypB): 0.000824 µM
IC50 (Cyp40): 0.000821 µM
IC50 (CypA): 0.00049 µM
cell size (FSC-A) (HUH7; 100 nM NV651): increased trend in the cell size
cell cycle distribution (DNA content) (HUH7; 100 nM NV651, after 48–72 h): block in the G2/M phase
subG1 fraction (apoptotic cells) (HUH7; 100 nM NV651 up to 96 h): statistically significant increase in cell death
cell size (FSC-A) (HEPG2; 100 nM NV651): increased trend in the cell size
cell cycle distribution (DNA content) (HEPG2; 100 nM NV651, after 48–72 h): block in the G2/M phase
subG1 fraction (apoptotic cells) (HEPG2; 100 nM NV651 up to 96 h): statistically significant increase in cell death
IC50 (Unstimulated PBMCs): > 30 µM
IC50 (PHA-stimulated PBMCs): > 30 µM
